Patent US20020035061A1, “COMPOSITIONS AND METHODS FOR TREATING INFECTIONS USING CATIONIC PEPTIDES ALONE OR IN COMBINATION WITH ANTIBIOTICS” (priority 1996, published 2002)
≈ marks a conversion by molar mass, not a printed value. Where “and” joins values, the source holds several entries; their conditions need not be identical. Equal values may be shown once. Read-outs that look alike come from different tables or passages of the source.

Assays:
Test in all cases: microbe, parasite or virus in culture
Assay type in all cases: cell-based
bacterial isolates = conditions: for FIC: combination with Ampicillin
[1] = tested on: microorganisms with acquired resistance
[2] = tested on: inherently resistant microorganisms
[3] = Acinetobacter baumannii, read-out: Tobramycin MIC Alone, A. baumannii ABI001
[4] = Acinetobacter baumannii, read-out: Tobramycin MIC Alone, A. baumannii ABI002
[5] = Pseudomonas aeruginosa, read-out: Tobramycin MIC Alone, P. aeruginosa PA008
[6] = Pseudomonas aeruginosa, read-out: Tobramycin MIC Alone, P. aeruginosa PA022
[7] = Pseudomonas aeruginosa, read-out: Tobramycin MIC Alone, P. aeruginosa PA025
[8] = Pseudomonas aeruginosa, read-out: Tobramycin MIC Alone, P. aeruginosa PA026
[9] = Pseudomonas aeruginosa, read-out: Tobramycin MIC Alone, P. aeruginosa PA030
[10] = Pseudomonas aeruginosa, read-out: Tobramycin MIC Alone, P. aeruginosa PA032
[11] = Staphylococcus epidermidis, read-out: Tobramycin MIC Alone, S. epidermidis SE068
[12] = Staphylococcus epidermidis, read-out: Tobramycin MIC Alone, S. epidermidis SE072
[13] = Staphylococcus epidermidis, read-out: Tobramycin MIC Alone, S. epidermidis SE073
[14] = Staphylococcus epidermidis, read-out: Tobramycin MIC Alone, S. epidermidis SE080
[15] = Stenotrophomonas maltophilia, read-out: Tobramycin MIC Alone, S. maltophilia SMA029
[16] = Stenotrophomonas maltophilia, read-out: Tobramycin MIC Alone, S. maltophilia SMA030
[17] = Stenotrophomonas maltophilia, read-out: Tobramycin MIC Alone, S. maltophilia SMA031
[18] = Stenotrophomonas maltophilia, read-out: Tobramycin MIC Alone, S. maltophilia SMA032

Compound: NC[C@H]1O[C@H](O[C@H]2[C@H](O)[C@@H](O[C@H]3O[C@H](CO)[C@@H](O)[C@H](N)[C@H]3O)[C@H](N)C[C@@H]2N)[C@H](N)C[C@@H]1O [Tobramycin]
- Tobramycin MIC Alone (bacterial isolates; A. baumannii ABI002): 4 µg/mL
- MIC (bacterial isolates; [3]): 16 µg/mL (≈ 34.2 µM)
- MIC (bacterial isolates; [4]): 8 µg/mL (≈ 17.1 µM)
- MIC (bacterial isolates; Burkholderia cepacia, read-out: Tobramycin MIC Alone, B. cepacia BC001): 128 µg/mL (≈ 274 µM)
- MIC (bacterial isolates; Burkholderia cepacia, read-out: Tobramycin MIC Alone, B. cepacia BC002): > 128 µg/mL
- MIC (bacterial isolates; Escherichia coli, read-out: Tobramycin MIC Alone, E. coli ECO004): 2 µg/mL (≈ 4.28 µM)
- MIC (bacterial isolates; Escherichia coli, read-out: Tobramycin MIC Alone, E. coli ECO006): 8 µg/mL (≈ 17.1 µM)
- MIC (bacterial isolates; Klebsiella pneumoniae, read-out: Tobramycin MIC Alone, K. pneumoniae KP008): 0.5 µg/mL (≈ 1.07 µM)
- MIC (bacterial isolates; [5]): 32 µg/mL (≈ 68.4 µM)
- MIC (bacterial isolates; [6]): 8 µg/mL (≈ 17.1 µM)
- MIC (bacterial isolates; [7]): 32 µg/mL (≈ 68.4 µM)
- MIC (bacterial isolates; [8]): 8 µg/mL (≈ 17.1 µM)
- MIC (bacterial isolates; Pseudomonas aeruginosa, read-out: Tobramycin MIC Alone, P. aeruginosa PA028): 32 µg/mL (≈ 68.4 µM)
- MIC (bacterial isolates; Pseudomonas aeruginosa, read-out: Tobramycin MIC Alone, P. aeruginosa PA029): 32 µg/mL (≈ 68.4 µM)
- MIC (bacterial isolates; [9]): 16 µg/mL (≈ 34.2 µM)
- MIC (bacterial isolates; [10]): 16 µg/mL (≈ 34.2 µM)
- Tobramycin MIC Alone (bacterial isolates; S. haemolyticus SHA005): 4 µg/mL
- Tobramycin MIC Alone (bacterial isolates; S. maltophilia SMA031): >128 µg/mL
- MIC (bacterial isolates; Staphylococcus aureus, MRSA, read-out: Tobramycin MIC Alone, S. aureus SA014 (also SA014 MRSA)): > 128 µg/mL
- MIC (bacterial isolates; Staphylococcus aureus, MRSA, read-out: Tobramycin MIC Alone, S. aureus SA014 MRSA): > 128 µg/mL
- MIC (bacterial isolates; Staphylococcus aureus, MRSA, read-out: Tobramycin MIC Alone, S. aureus SA018 MRSA): 64 µg/mL (≈ 137 µM)
- MIC (bacterial isolates; Staphylococcus aureus, MRSA, read-out: Tobramycin MIC Alone, S. aureus SA025 (also SA025 MRSA)): > 128 µg/mL
- MIC (bacterial isolates; Staphylococcus epidermidis, read-out: Tobramycin MIC Alone, S. epidermidis SE067): > 128 µg/mL
- MIC (bacterial isolates; [11]): > 128 µg/mL
- MIC (bacterial isolates; [12]): > 128 µg/mL
- MIC (bacterial isolates; [13]): > 128 µg/mL
- MIC (bacterial isolates; [14]): 32 µg/mL (≈ 68.4 µM)
- MIC (bacterial isolates; Staphylococcus haemolyticus, read-out: Tobramycin MIC Alone, S. haemolyticus SHA001): 4 µg/mL (≈ 8.56 µM)
- MIC (bacterial isolates; Staphylococcus haemolyticus, read-out: Tobramycin MIC Alone, S. haemolyticus SHA005): 8 µg/mL (≈ 17.1 µM)
- MIC (bacterial isolates; Stenotrophomonas maltophilia, read-out: Tobramycin MIC Alone, S. maltophilia (strain code stands in r800, not shown)): 128 µg/mL (≈ 274 µM)
- MIC (bacterial isolates; Stenotrophomonas maltophilia, read-out: Tobramycin MIC Alone, S. maltophilia SMA027): 32 µg/mL (≈ 68.4 µM)
- MIC (bacterial isolates; [15]): 128 µg/mL (≈ 274 µM)
- MIC (bacterial isolates; [16]): 128 µg/mL (≈ 274 µM)
- MIC (bacterial isolates; [17]): 128 µg/mL (≈ 274 µM)
- MIC (bacterial isolates; [18]): 128 µg/mL (≈ 274 µM)
- MIC (bacterial isolates; Stenotrophomonas maltophilia, read-out: Tobramycin MIC Alone, S. maltophilia SMA035): 32 µg/mL (≈ 68.4 µM)
- MIC comb. (antibiotic agent) ([1]; A. calcoaceticus, with MBI 29): 1 µg/mL (≈ 2.14 µM)
- MIC [1, 3]: 16 µg/mL (≈ 34.2 µM)
- MIC [1, 4]: 8 µg/mL (≈ 17.1 µM)
- MIC ([1]; Acinetobacter calcoaceticus, read-out: MIC alone (antibiotic agent), A. calcoaceticus): 8 µg/mL (≈ 17.1 µM)
- MIC ([1]; Escherichia coli, read-out: Tobramycin MIC Alone, E. coli EC0006): 8 µg/mL (≈ 17.1 µM)
- Tobramycin MIC Alone ([1]; P. aeruginosa PA032): 8 µg/mL
- MIC comb. (antibiotic agent) ([1]; P. aeruginosa, with MBI 29): 1 µg/mL (≈ 2.14 µM)
- MIC ([1]; Pseudomonas aeruginosa, read-out: MIC alone (antibiotic agent), P. aeruginosa): 64 µg/mL (≈ 137 µM)
- MIC [1, 5]: 32 µg/mL (≈ 68.4 µM)
- MIC [1, 6]: 8 µg/mL (≈ 17.1 µM)
- MIC [1, 7]: 32 µg/mL (≈ 68.4 µM)
- MIC [1, 8]: 8 µg/mL (≈ 17.1 µM)
- MIC [1, 9]: 16 µg/mL (≈ 34.2 µM)
- MIC ([1]; Pseudomonas aeruginosa, read-out: Tobramycin MIC Alone, P. aeruginosa PA031): 16 µg/mL (≈ 34.2 µM)
- MIC [1, 10]: 16 µg/mL (≈ 34.2 µM)
- Tobramycin MIC Alone ([1]; S. maltophilia SMA031): 128 µg/mL and >128 µg/mL
- MIC [1, 11]: > 128 µg/mL
- MIC ([1]; Staphylococcus epidermidis, read-out: Tobramycin MIC Alone, S. epidermidis SE071): > 128 µg/mL
- MIC [1, 12]: > 128 µg/mL
- MIC [1, 13]: > 128 µg/mL
- MIC [1, 14]: 16 µg/mL (≈ 34.2 µM)
- MIC [1, 15]: 128 µg/mL (≈ 274 µM)
- MIC [1, 16]: 128 µg/mL (≈ 274 µM)
- MIC [1, 17]: 64 µg/mL (≈ 137 µM)
- MIC [1, 18]: 128 µg/mL (≈ 274 µM)
- MIC ([2]; Staphylococcus aureus, read-out: Tobramycin MIC + Peptide, S. aureus, peptide MBI 11A1CN): 0.125 µg/mL
- MIC ([2]; Staphylococcus aureus, read-out: Tobramycin MIC + Peptide, S. aureus, peptide MBI 11D18CN): 4 µg/mL
- MIC ([2]; Staphylococcus aureus, read-out: Tobramycin MIC + Peptide, S. aureus, peptide MBI 11F3CN): 2 µg/mL
- MIC ([2]; Staphylococcus aureus, read-out: Tobramycin MIC + Peptide, S. aureus, peptide MBI 11G13CN): 0.125 µg/mL
- MIC ([2]; Staphylococcus aureus, read-out: Tobramycin MIC + Peptide, S. aureus, peptide MBI 21A1): 0.125 µg/mL
- MIC ([2]; Staphylococcus aureus, read-out: Tobramycin MIC + Peptide, S. aureus, peptide MBI 22A1): 4 µg/mL
- MIC ([2]; Staphylococcus aureus, read-out: Tobramycin MIC Alone, S. aureus): > 128 µg/mL
- MIC ([2]; Staphylococcus haemolyticus, read-out: Tobramycin MIC + Peptide, S. haemolyticus, peptide MBI 11A1CN): 4 µg/mL
- MIC ([2]; Staphylococcus haemolyticus, read-out: Tobramycin MIC Alone, S. haemolyticus): 8 µg/mL (≈ 17.1 µM)

Compound: Gentamicin
- Gentamicin MIC Alone (bacterial isolates; A. calcoaceticus AC001): 8 µg/mL
- Gentamicin MIC Alone (bacterial isolates; E. faecalis EFS008): >128 µg/mL and 128 µg/mL
- Gentamicin MIC Alone (bacterial isolates; E. faecium EFM004): >128 µg/mL
- Gentamicin MIC Alone (bacterial isolates; P. aeruginosa PA022): 32 µg/mL and 16 µg/mL
- Gentamicin MIC Alone (bacterial isolates; P. aeruginosa PA023): 8 µg/mL
- Gentamicin MIC Alone (bacterial isolates; P. aeruginosa PA041): 8 µg/mL and 16 µg/mL
- Gentamicin MIC Alone (bacterial isolates; S. aureus SA014 MRSA): 32 µg/mL
- Gentamicin MIC Alone (bacterial isolates; S. epidermidis SE071): 16 µg/mL
- Gentamicin MIC Alone (bacterial isolates; S. epidermidis SE074): 128 µg/mL
- Gentamicin MIC Alone (bacterial isolates; S. maltophilia (strain line r400 not shown)): 128 µg/mL
- Gentamicin MIC Alone (bacterial isolates; S. maltophilia SMA016): >128 µg/mL and 128 µg/mL
- Gentamicin MIC Alone (bacterial isolates; S. maltophilia SMA017): 128 µg/mL
- Gentamicin MIC Alone ([1]; A. baumannii ABI002): 16 µg/mL and 32 µg/mL
- Gentamicin MIC Alone ([1]; A. calcoaceticus AC001): 8 µg/mL
- Gentamicin MIC Alone ([1]; P. aeruginosa PA022): 32 µg/mL
- Gentamicin MIC Alone ([1]; P. aeruginosa PA023): 8 µg/mL and 16 µg/mL
- Gentamicin MIC Alone ([1]; P. aeruginosa PA041): 8 µg/mL and 16 µg/mL
- Gentamicin MIC Alone ([2]; S. aureus MRSA): 32 µg/mL
- Gentamicin MIC + Peptide ([2]; S. aureus MRSA, peptide MBI 11B16CN): 1 µg/mL

Compound: CC1(C)S[C@@H]2[C@H](NC(=O)[C@H](N)c3ccccc3)C(=O)N2[C@H]1C(=O)O [Ampicillin]
- MIC comb. (antibiotic agent) ([1]; S. aureus, with MBI 26): 0.25 µg/mL (≈ 0.715 µM)
- MIC comb. (antibiotic agent) ([1]; S. haemolyticus, with MBI 26): 0.25 µg/mL (≈ 0.715 µM)
- MIC ([1]; Staphylococcus aureus, read-out: MIC alone (antibiotic agent), S. aureus): 2 µg/mL (≈ 5.72 µM)

Compound: GKPRPYSPIPTSPRPIRY [MBI 31]
- FIC (bacterial isolates; S. epidermidis SE8416): 0.52
- FIC (bacterial isolates; S. epidermidis SH8575): 0.27
- FIC (bacterial isolates; S. haemolyticus SA7797): 0.50
- FIC (bacterial isolates; S. haemolyticus SA7817): 0.26
- FIC (bacterial isolates; S. haemolyticus SA7818): 0.52
- FIC (bacterial isolates; S. haemolyticus SA7834): 0.52
- FIC (bacterial isolates; S. haemolyticus SA7835): 0.50
- FIC (bacterial isolates; S. haemolyticus SH8597): 1.00
- Peptide MIC ([1]; S. aureus, combination with Erythromycin, in µg/mL): 0.125
